Experimental data from US5830855A, “Lipodepsipeptides as antifungal and fungicidal agents” (priority 1996, dated 1998).
In brackets after ≈: the same amount, converted by molar mass.

Columns and labels:
[1] = test system: clinical isolates (fungi); assay: Broth microdilution MIC, fungal isolates overall; type: cell-based; details: range over all clinical isolates
Description: Most of the fungal strains used in the tests were clinical isolates obtained from the University of Texas Health Science Center at San Antonio Fungus Testing Laboratory (San Antonio, Tex.) and the remaining isolates were ATCC strains.
(§1) Medium: Liquid RPMI 1640 (RPMI) medium with L-glutamine and without sodium bicarbonate (Sigma Chemical Co., R-6504; St. Louis, Mo.) buffered with 0.165M MOPS (34.54 g/liter) was used for in vitro antifungal tests. The medium was adjusted to pH 7.0 with 10M NaOH and filter sterilized.
Lipodepsipeptide Dilutions: All stock drug solution concentrations were at least 10-fold higher than the highest concentration tested. […]
(§2) Preparation of Inoculum Suspensions: On Sabouraud dextose agar (SDA; BBL, Becton and Dickinson and Co., Cockeysville, Md.) all isolates were subcultured at least twice before use to ensure purity and viability. […] The turbidity of each mixed suspension was measured at 530 nm and adjusted to 1×10^6 to 5×10^6 CFU/ml by the NCCLS spectrophotometric method described by National Committee for Clinical Laboratory Standards. […]
(§3) Aspergillus fumigatus and Mucor spp. were grown for 1 wk at 35° C. […] The stock suspensions of all filamentous fungi were measured at 530 nm and adjusted to 85-87% transmission. The concentration (1×10^6 to 5×10^6 CFU/ml) was determined by hemacytometer count or plate count on SDA. […]

[2] = test system: Mucor spp.; assay: Broth microdilution MIC; type: cell-based; details: Table 1 (MICs), 5 isolates, 48 hr
Method: as §1
(§4) Lipodepsipeptide Dilutions: All stock drug solution concentrations were at least 10-fold higher than the highest concentration tested. AmB, ketoconazole, and the test compounds (SR-E, ST-B, and SS-A) were dissolved in sterile distilled water, 0.2N HCl, and 0.001N HCl, respectively. Each stock solution was diluted to 2× the highest concentration of drug tested with RPMI. Two-fold dilutions were made with RPMI medium.
(§5) Preparation of Inoculum Suspensions: On Sabouraud dextose agar (SDA; BBL, Becton and Dickinson and Co., Cockeysville, Md.) all isolates were subcultured at least twice before use to ensure purity and viability. Candida spp. and Saccharomyces cerevisiae were grown for 24 hr at 35° C. Isolates of Cryptococcus neoformans were grown for 48 hr at 35° C. Yeast cells from at least five 1-mm-diameter colonies were suspended in 5 ml of sterile 0.85% saline. The resulting suspension was vortexed for 15 sec. The turbidity of each mixed suspension was measured at 530 nm and adjusted to 1×10^6 to 5×10^6 CFU/ml by the NCCLS spectrophotometric method described by National Committee for Clinical Laboratory Standards. 1992. Reference method for broth dilution antifungal susceptibility testing of yeasts; proposed standard, NCCLS document M27-P (ISBN 1-56238-186-5). NCCLS, Villanova. The final transmission of each yeast suspension ranged from 85-87%.
(§6) Aspergillus fumigatus and Mucor spp. were grown for 1 wk at 35° C. The dermatophytes, Microsporum spp. and Trichophyton spp., were grown for two wk at 30° C. Fungal spores were washed from the plates of all good spore formers (A. fumigatus, Mucor spp., Microsporum canis and Trichophyton spp.) by placing 5 ml of 0.85% saline with 0.2% Tween 80 on the plates and mixing with an inoculating loop. The spore/mycelium suspension was drawn off with a pipette and allowed to settle for at least 5 min. For the poor spore-forming Microsporum audouinii, the procedure was the same except the spore/mycelial suspension was homogenized with a ground glass tissue homogenizer and then allowed to settle for at least 5 min. A small amount of the supernatant was transferred to 5 ml of sterile saline and vortexed. The stock suspensions of all filamentous fungi were measured at 530 nm and adjusted to 85-87% transmission. The concentration (1×10^6 to 5×10^6 CFU/ml) was determined by hemacytometer count or plate count on SDA. All stock suspensions were diluted 1000-fold with RPMI, or 2× the final desired test inocula. The 2× inoculum was diluted 1:1 when the wells were inoculated, and the desired inoculum size was achieved.
(§7) Broth Microdilution Test: Broth microdilution tests were performed using sterile, disposable, multiwell microdilution plates (96 round U-bottom wells) (Falcon 3077; Becton and Dickinson Labware, Lincoln Park, N.J.). The drugs (2× concentrations) were dispensed into the wells of rows number 1 to 10 of the microdilution plates in 100 μl volumes from highest drug concentration to lowest drug concentration. Each well was inoculated with 100 μl of the corresponding 2× concentrated fungal suspension. The wells of row 11 contained the inoculum with drug-free media as a positive growth control and the wells of row 12 contained uninoculated-drug-free medium as a sterility control.
(§8) Incubation and Scoring of MIC: All cultures were incubated without shaking at the temperature used during subculture. Incubation times were 48 hr for Candida spp., S. cerevisiae, A. fumigatus, and Mucor spp; 72 hr for C. neoformans; and 7 days for Microsporum and Trichophyton spp. […]

[3] = test system: Candida tropicalis; assay: Broth microdilution MIC; type: cell-based
Method: as §1, §4, §5, §6, §7, §8

[4] = test system: Candida rugosa; assay: Broth microdilution MIC; type: cell-based
Method: as §1, §4, §5, §6, §7, §8

[5] = test system: Trichophyton spp.; assay: Broth microdilution MIC; type: cell-based; details: Table 1 (MICs), 3 isolates, 7 days
Method: as §1, §4, §5, §6, §7, §8

[6] = test system: Saccharomyces cerevisiae; assay: Broth microdilution MIC; type: cell-based; details: Table 1 (MICs), 1 strain tested more than once (control ATCC 36375), 48 hr
Method: as §1, §4, §5, §6, §7, §8

[7] = test system: Candida krusei; assay: Broth microdilution MIC; type: cell-based; details: Table 1 (MICs), 2 isolates, 48 hr
Method: as §1, §4, §5, §6, §7, §8

[8] = test system: Candida parapsilosis; assay: Broth microdilution MIC; type: cell-based; details: Table 1 (MICs), 2 isolates, 48 hr
Method: as §1, §4, §5, §6, §7, §8

[9] = test system: Aspergillus fumigatus; assay: Broth microdilution MIC; type: cell-based; details: Table 1 (MICs), 16 isolates, 48 hr
Method: as §1, §4, §5, §6, §7, §8

[10] = test system: Candida albicans; assay: Broth microdilution MIC; type: cell-based; details: Table 1 (MICs); Candida albicans, 20 isolates; RPMI pH 7.0, 48 hr; Ktz read at score 2, others at score 0
Method: as §1, §4, §5, §6, §7, §8

[11] = test system: Candida lusitaniae; assay: Broth microdilution MIC; type: cell-based; details: Table 1 (MICs), 2 isolates, 48 hr
Method: as §1, §4, §5, §6, §7, §8

[12] = test system: Microsporum spp.; assay: Broth microdilution MIC; type: cell-based; details: Table 1 (MICs), 2 isolates, 7 days
Method: as §1, §4, §5, §6, §7, §8

[13] = test system: Candida kefyr; assay: Broth microdilution MIC; type: cell-based; details: Table 1 (MICs), 1 isolate, 48 hr
Method: as §1, §4, §5, §6, §7, §8

[14] = test system: Cryptococcus neoformans; assay: Broth microdilution MIC; type: cell-based
Method: as §1, §4, §5, §6, §7, §8

[15] = test system: Mucor spp.; assay: Minimum Fungicidal Concentration (MFC); type: cell-based; details: Table 2, 5 isolates, 24 hr
Method: as §1, §4, §5, §6, §7, §8

[16] = test system: Candida tropicalis; assay: Minimum Fungicidal Concentration (MFC); type: cell-based; details: Table 2, 2 isolates, 24 hr
Method: as §1, §4, §5, §6, §7, §8

[17] = test system: Candida rugosa; assay: Minimum Fungicidal Concentration (MFC); type: cell-based; details: Table 2, 2 isolates, 24 hr
Method: as §1, §4, §5, §6, §7, §8

[18] = test system: Trichophyton spp.; assay: Minimum Fungicidal Concentration (MFC); type: cell-based; details: Table 2, 3 isolates, 7 d
Method: as §1, §4, §5, §6, §7, §8

[19] = test system: Saccharomyces cerevisiae; assay: Minimum Fungicidal Concentration (MFC); type: cell-based; details: Table 2, 1 strain tested more than once, 24 hr
Method: as §1, §4, §5, §6, §7, §8

[20] = test system: Candida krusei; assay: Minimum Fungicidal Concentration (MFC); type: cell-based; details: Table 2, 2 isolates, 24 hr
Method: as §1, §4, §5, §6, §7, §8

[21] = test system: Candida parapsilosis; assay: Minimum Fungicidal Concentration (MFC); type: cell-based; details: Table 2, 2 isolates, 24 hr
Method: as §1, §4, §5, §6, §7, §8

[22] = test system: Aspergillus fumigatus; assay: Minimum Fungicidal Concentration (MFC); type: cell-based; details: Table 2, 16 isolates, 48 hr
Method: as §1, §4, §5, §6, §7, §8

[23] = test system: Candida lusitaniae; assay: Minimum Fungicidal Concentration (MFC); type: cell-based; details: Table 2, 2 isolates, 24 hr
Method: as §1, §4, §5, §6, §7, §8

[24] = test system: Microsporum spp.; assay: Minimum Fungicidal Concentration (MFC); type: cell-based; details: Table 2, 2 isolates, 7 d
Method: as §1, §4, §5, §6, §7, §8

[25] = test system: Candida kefyr; assay: Minimum Fungicidal Concentration (MFC); type: cell-based; details: Table 2, 1 isolate, 24 hr
Method: as §1, §4, §5, §6, §7, §8

[26] = test system: Cryptococcus neoformans; assay: Minimum Fungicidal Concentration (MFC); type: cell-based; details: Table 2, 14 isolates, 48 hr
Method: as §1, §4, §5, §6, §7, §8

[27] = test system: fungal isolates; assay: Fungicidal activity (MFC), fungal isolates overall; type: cell-based, fungi; details: Table 2 organisms
Method: as §1, §4, §2, §3

## C[C@@H]1[C@H](O)[C@@H](C)/C=C/C=C/C=C/C=C/C=C/C=C/C=C/[C@H](O[C@@H]2O[C@H](C)[C@@H](O)[C@H](N)[C@@H]2O)C[C@@H]2O[C@](O)(C[C@@H](O)C[C@@H](O)[C@H](O)CC[C@@H](O)C[C@@H](O)CC(=O)O[C@H]1C)C[C@H](O)[C@H]2C(=O)O [AmB, amphotericin B, reference compound]
[1]
  susceptibility (MIC) of the clinical isolates: 0.02-1.25 g/ml
[2]
  MIC range: 0.02 to 0.15 µg/mL
[3]; Table 1 (MICs), Candida tropicalis, 2 isolates, 48 hr
  MIC (μg/ml) range: 0.3 to 1.25 µg/mL
[3]; one strain of C. tropicalis
  susceptibility of one strain of C. tropicalis: resistance
[4]; Table 1 (MICs), Candida rugosa, 2 isolates, 48 hr
  MIC range: 0.3 to 1.25 µg/mL
[4]; one strain of C. rugosa (AmB-resistant)
  susceptibility of one strain of C. rugosa: resistance
[5]
  MIC range: 0.3 to 0.6 µg/mL
[6]
  MFC (μg/ml) range: 0.3 µg/mL (≈ 0.325 µM)
[7]
  MIC (μg/ml) range: 0.3 to 0.6 µg/mL
[8]
  MIC range: 0.6 µg/mL (≈ 0.649 µM)
[9]
  MIC range: 0.15 to 1.25 µg/mL
[10]
  MIC range: 0.04 to 0.3 µg/mL
[11]
  MIC range: 0.3 µg/mL (≈ 0.325 µM)
[12]
  MIC range: 0.04 to 0.3 µg/mL
[13]
  MIC (μg/ml) range: 0.3 µg/mL (≈ 0.325 µM)
[14]; Table 1 (MICs), Cryptococcus neoformans, 14 isolates, 72 hr
  MIC range: 0.08 to 1.25 µg/mL
[14]; one strain of C. neoformans, very sensitive to ST-B, somewhat resistant to AmB
  MIC, one strain of C. neoformans: 1.25 µg/mL
[15]
  MFC (μg/ml) range: ≤0.02 to 0.3 µg/mL
[16]
  MFC (μg/ml) range: 0.6 to 1.25 µg/mL
[17]
  MFC (μg/ml) range: 0.6 to 2.5 µg/mL
[18]
  MFC (μg/ml) range: 0.3 to 0.6 µg/mL
[19]
  MFC (μg/ml) range: 1.25 µg/mL (≈ 1.35 µM)
[20]
  MFC (μg/ml) range: 0.6 µg/mL (≈ 0.649 µM)
[21]
  MFC (μg/ml) range: 1.25 µg/mL (≈ 1.35 µM)
[22]
  MFC (μg/ml) range: 0.6 to 2.5 µg/mL
[23]
  MFC (μg/ml) range: 0.6 µg/mL (≈ 0.649 µM)
[24]
  MFC (μg/ml) range: 0.08 to 0.3 µg/mL
[25]
  MFC (μg/ml) range: 0.3 µg/mL (≈ 0.325 µM)
[26]
  MFC (μg/ml) range: 0.15 to 1.25 µg/mL
[27]
  fungicidal activity: fungicidal activity against most of the strains tested
